Entries after “also recorded” stand apart in the source; their conditions may differ.
Tests used:
metastatic PDAC = conditions: in combination with gemcitabine (Gem) and nab-paclitaxel (Nab-P), phase 1b; cited from earlier work
[1] = test system: Tregs and CD8+ T cells in PDAC tissue and spleen; assay: Orthotopic KPC-derived PDAC mice: flow cytometry and IF of T cells in tumor and spleen; type: in vivo, mouse
Method: (§1) The treatment studies in orthotopic syngeneic PDAC mice were performed as follows. Eight days after orthotopic implantation of 5.0×10^5 KPC-derived PDAC cells, the mice were randomized into respective treatment cohorts, such as intravenous (IV) phosphate buffered saline (PBS) alone, IV iRGD alone (300 μg/25 g), IV PBS+IP antimouse PD-L1 mAb (200 μg/mouse; clone MIH6; BioLegend™), IV iRGD+IP anti-mouse PD-L1 mAb, IV PBS+IV Gem (4 mg/kg; MilliporeSigma™), and IV iRGD+IV GEM+IP anti-mouse PD-L1 mAb. The treatment was given 3 times a week for 2 weeks starting 8 days after tumor cell implantation. The tumors and major organs were harvested at the end of the studies on day 22, weighed, and processed for flow cytometry, IF, and IHC. The treatment studies were terminated according to the guidelines by the IACUC at Columbia University. Treatment studies in transgenic KPC mice were performed as previously described.
Tumors from orthotopic PDAC mice were minced into 2-4 mm pieces and added with an enzyme mix from a tumor dissociation kit (Miltenyi Biotec™) in Roswell Park Memorial Institute medium 1640 (Cytiva™). The tissues were dissociated using a gentle MACS Dissociator (Miltenyi Biotec™) followed by a 40-minute incubation at 37° C. The samples were then centrifuged for 10 minutes at 3000×g in the presence of debris removal solution (Miltenyi Biotec™) and 10 minutes at 1000×g in cooled PBS. The supernatant was aspirated to remove the debris. Splenocytes were prepared by gently grinding the spleen and filtrating the resulting cell suspension through a 40 μm cell strainer. Red cells were lysed with an ACK lysing buffer (Thermo Fisher Scientific™
Immune cells isolated from the tumor or spleen, or cells cultured in vitro were tested for surface marker by staining with the following reagents for 20 minutes at 4° C.: Brilliant Violet 650™-conjugated anti-mouse CD3 Ab (clone 17A2; BioLegend), PerCP/Cyanine5.5-conjugated anti-mouse CD4 Ab (clone GK1.5; BioLegend™), PE/Cyanine7-conjugated antimouse CD8a Ab (clone 53-6.7; BioLegend™), PE-conjugated anti-mouse CD25 Ab (clone 7D4; Miltenyi Biotec™), PE/Cyanine7-conjugated anti-mouse CD25 Ab (clone PC61; BioLegend™), Brilliant Violet 421™ or 711™-conjugated anti-mouse CD304/NRP-1 Ab (clone 3E12; BioLegend™), Alexa Fluor® 647-conjugated anti-mouse integrin αvβ5 Ab (clone ALULA; BD Biosciences™), PE-conjugated anti-mouse CD198 (CCR8) Ab (clone SA214G2; BioLegend™), Zombie NIR™ (BioLegend™), or Aqua™ Fixable Viability Kit (BioLegend™). Intracellular staining of immune cells was performed using the following Abs and a Foxp3 staining buffer kit (eBioscience) according to the manufacturer's instructions: Brilliant Violet 421™-conjugated anti-Foxp3 Ab (FJK-16s; eBioscience™) Pacific Blue™-conjugated anti-mouse Foxp3 Ab (clone MF-14; BioLegend™), cleaved caspase-3 (Asp175) (5A1E) rabbit mAb (Cell Signaling™), and Alexa Flour™ 488-conjugated donkey anti-rabbit secondary Ab (Thermo Fisher Scientific™)
The Effect of iRGD Therapy on the Proportion of CD8+ T cells, Tregs, and Non-Treg CD4+ T Cells in the PDAC Tissue and the Spleen was tested. C57B6129SF1/J hybrid mice bearing orthotopic KPCderived PDAC tumors were treated with PBS or iRGD 3 times a week for 2 weeks. The tumors and spleen were collected 3, 7 and 14 days after the treatment was started. The proportion of CD8+ T cells, CD4+CD25+ T cells (Tregs), and CD4+CD25neg T cells (non-Tregs) in the tumors (FIG. 6A) and the spleen (FIG. 6B) were analyzed by flow cytometry (n=3 per arm).
In addition, C57B6129SF1/J hybrid mice bearing KPC-derived orthotopic PDAC tumors were intravenously treated with PBS or iRGD 3 times a week for 2 weeks. Tumors and spleen were collected at 3, 7 and 14 days after the treatment was started. […]

[2] = test system: orthotopic KPC-derived PDAC tumors; assay: Treatment study in orthotopic syngeneic KPC-derived PDAC mice: tumor weight; type: in vivo, mouse; conditions: 3 times a week for 2 weeks
Method: Syngeneic PDAC mice were generated by orthotopic pancreatic injections of 5.0×10^5 KPC-derived PDAC cells into 8- to 10-week-old C57B6129SF1/J hybrid mice (Jackson™), which are the offspring of a cross between C57BL/6J females and 129S1/SvImJ males. In some experiments, the tumor growth was measured by luminescence imaging.
as §1
C57B6129SF1/J hybrid mice bearing orthotopic KPC-derived PDAC tumors were treated with PBS or iRGD 3 times a week for 2 weeks. […]

huPDAC tumors = assay: Humanized PDAC (huPDAC) mice treated with iRGD monotherapy; type: in vivo, mouse
Description: In summary, this report conveys an important concept of tumor-specific Treg targeting, which can be achieved using an affinity probe that targets the αvβ5 integrin expressed on tumor-resident Tregs. […] The immune system of huPDAC mice is replaced by functional human immune cells, which react to antigens in a human-leukocyte antigen (HLA)-restricted manner, allowing us to study the response of human immunity against human PDAC in mice. […] Our finding that patient-derived PDAC tissue also harbors αvβ5 integrin- and NRP-1-positive Tregs further supports the argument that iRGD-mediated Treg targeting can be achieved in human PDAC patients. Clinical trials are now being organized to explore the therapeutic benefit of adding an ICB to iRGD-based chemotherapy in PDAC patients.

CRGDKGPDC [iRGD]
efficacy against metastatic PDAC (metastatic PDAC): promising preliminary efficacy | proportion of Tregs in the PDAC tissue ([1]; CD4+CD25+ Tregs among CD4+ T cells, tumor, in 7 days, vs PBS): significantly reduced the proportion of Tregs | CD8/Treg ratio in the spleen ([1]; spleen of the PDAC mice): did not affect | proportion of CD8+ T cells in the spleen ([1]; spleen of the PDAC mice): did not affect | proportion of Tregs in the spleen ([1]; spleen of the PDAC mice): did not affect | proportion of CD8+ T cells in the PDAC tissue ([1]; tumor, flow cytometry, vs PBS): increased the proportion of CD8+ T cells | CD8/Treg ratio in the PDAC tissue ([1]; tumor, in 7 days, vs PBS): significantly increased the CD8/Treg ratio | tumor growth (tumor weight at end of study) [2]: did not inhibit tumor growth; also recorded: did not affect tumor growth | CD8/Treg ratio in the huPDAC tumors (huPDAC tumors): increased the CD8/Treg ratio in the tumors

Source: patent US20260069694A1, “IDENTIFICATION OF HIGHLY IMMUNOSUPRESIVE TREG POPULATION IN TUMOR MICROENVIRONMENTS” (THE TRUSTEES OF COLUMBIA UNIVERSITY IN THE CITY OF NEW YORK, priority 2023, published 2026)
